In patent US8802597B2, “Herbicidal pyrimidines” (E I du Pont de Nemours and Company, priority 2003, dated 2014):

How the values were obtained:
Assay type in all cases: in vivo
[1] = system: winter barley (Hordeum vulgare); experiment: Test D pre/postemergence; details: scale 0 to 100 (100 = complete control)
Summary of the method: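 Pre: seeds sown, then treated. Post: plants at 1- to 4-leaf stage (2 to 18 cm) sprayed at the same time. Chemicals formulated in a non-phytotoxic solvent mixture including surfactant. After 15 to 25 days under controlled growth conditions, response rated visually from 0 (no effect) to 100 (complete control).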

[2] = system: common purslane (Portulaca oleracea); experiment: Test G pre/postemergence
Summary of the method: (§1)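 Visual scores from 0 (no effect) to 100 (complete control) were assigned relative to untreated controls 12 to 21 days after treatment. Compounds, formulated in a non-phytotoxic solvent mixture with surfactant, were applied preemergence to planted seed or postemergence to plants at the 1- to 4-leaf stage (2 to 18 cm).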

[3] = system: kochia (Kochia scoparia); experiment: Test G pre/postemergence
Summary of the method: as §1

[4] = system: johnsongrass (Sorghum halepense); experiment: Test G pre/postemergence
Summary of the method: as §1

[5] = system: goosegrass (Eleusine indica); experiment: Test G pre/postemergence
Summary of the method: as §1

[6] = system: Canada horseweed (Conyza canadensis); experiment: Test G pre/postemergence
Summary of the method: as §1

[7] = system: dallisgrass (Paspalum dilatatum); experiment: Test G pre/postemergence
Summary of the method: as §1

[8] = system: common groundsel (Senecio vulgaris); experiment: Test G pre/postemergence
Summary of the method: as §1

[9] = system: spanishneedles (Bidens bipinnata); experiment: Test G pre/postemergence; details: Postemergence, scale 0 to 100
Summary of the method: as §1

[10] = system: pitted morningglory (Ipomoea lacunosa); experiment: Test G pre/postemergence
Summary of the method: as §1

[11] = system: tropical spiderwort (Commelina benghalensis); experiment: Test G pre/postemergence
Summary of the method: as §1

[12] = system: itchgrass (Rottboellia cochinchinensis); experiment: Test G pre/postemergence
Summary of the method: as §1

[13] = Postemergence, 250 g ai/ha, scale 0 to 100
[14] = Postemergence, 16 g ai/ha, scale 0 to 100
[15] = Postemergence, 31 g ai/ha, scale 0 to 100
[16] = Postemergence, 62 g ai/ha, scale 0 to 100
[17] = Postemergence, 125 g ai/ha, scale 0 to 100
[18] = Preemergence, 16 g ai/ha, scale 0-100
[19] = Preemergence, 31 g ai/ha, scale 0-100
[20] = Preemergence, 62 g ai/ha, scale 0-100
[21] = Preemergence, 125 g ai/ha, scale 0-100
[22] = Preemergence, 250 g ai/ha, scale 0-100

Nc1nc(C2CC2)nc(C=O)c1Br [Compound 26]
Plant response rating, Barley ([1]; Postemergence, 125 g ai/ha): 45 | Plant response rating, Barley ([1]; Postemergence, 250 g ai/ha): 50 | Plant response rating, Barley ([1]; Preemergence, 125 g ai/ha): 25 | Plant response rating, Barley ([1]; Preemergence, 250 g ai/ha): 35

COC(=O)c1nc(C2CC2C)nc(N)c1Br (stereo not drawn) [Compound 28]
Plant response rating, Barley ([1]; Postemergence, 62 g ai/ha): 20 | Plant response rating, Barley ([1]; Postemergence, 125 g ai/ha): 40 | Plant response rating, Barley ([1]; Postemergence, 250 g ai/ha): 40 | Plant response rating, Barley ([1]; Preemergence, 62 g ai/ha): 10 | Plant response rating, Barley ([1]; Preemergence, 125 g ai/ha): 25 | Plant response rating, Barley ([1]; Preemergence, 250 g ai/ha): 45

CCOC(=O)Cc1nc(C2CC2)nc(N=CN(C)C)c1Br [Compound 33]
Plant response rating, Barley ([1]; Postemergence, 62 g ai/ha): 45 | Plant response rating, Barley ([1]; Postemergence, 125 g ai/ha): 45 | Plant response rating, Barley ([1]; Postemergence, 250 g ai/ha): 45 | Plant response rating, Barley ([1]; Preemergence, 62 g ai/ha): 10 | Plant response rating, Barley ([1]; Preemergence, 125 g ai/ha): 35 | Plant response rating, Barley ([1]; Preemergence, 250 g ai/ha): 45

COC(=O)c1nc(C2CC2)nc(NO)c1Br [Compound 35]
Plant response rating, Barley ([1]; Postemergence, 62 g ai/ha): 65 | Plant response rating, Barley ([1]; Postemergence, 125 g ai/ha): 65 | Plant response rating, Barley ([1]; Postemergence, 250 g ai/ha): 70 | Plant response rating, Barley ([1]; Preemergence, 62 g ai/ha): 40 | Plant response rating, Barley ([1]; Preemergence, 125 g ai/ha): 45 | Plant response rating, Barley ([1]; Preemergence, 250 g ai/ha): 45

Nc1nc(C2CC2)nc(C(=O)[O-])c1Cl.[Na+] [Compound 77, 6-amino-5-chloro-2-cyclopropyl-4-pyrimidinecarboxylic acid monosodium salt]
Plant response rating, Purslane [2, 13]: 85 | Plant response rating, Purslane [2, 14]: 20 | Plant response rating, Purslane [2, 15]: 20 | Plant response rating, Purslane [2, 16]: 60 | Plant response rating, Purslane [2, 17]: 70 | Plant response rating, Purslane [2, 18]: 45 | Plant response rating, Purslane [2, 19]: 60 | Plant response rating, Purslane [2, 20]: 75 | Plant response rating, Purslane [2, 21]: 100 | Plant response rating, Purslane [2, 22]: 100 | Plant response rating, Kochia [3, 13]: 98 | Plant response rating, Kochia [3, 14]: 90 | Plant response rating, Kochia [3, 15]: 95 | Plant response rating, Kochia [3, 16]: 98 | Plant response rating, Kochia [3, 17]: 98 | Plant response rating, Kochia [3, 18]: 85 | Plant response rating, Kochia [3, 19]: 95 | Plant response rating, Kochia [3, 20]: 95 | Plant response rating, Kochia [3, 21]: 100 | Plant response rating, Kochia [3, 22]: 100 | Plant response rating, Johnsongrass [4, 13]: 85 | Plant response rating, Johnsongrass [4, 14]: 20 | Plant response rating, Johnsongrass [4, 15]: 65 | Plant response rating, Johnsongrass [4, 16]: 70 | Plant response rating, Johnsongrass [4, 17]: 85 | Plant response rating, Johnsongrass [4, 18]: 10 | Plant response rating, Johnsongrass [4, 19]: 65 | Plant response rating, Johnsongrass [4, 20]: 75 | Plant response rating, Johnsongrass [4, 21]: 85 | Plant response rating, Johnsongrass [4, 22]: 95 | Plant response rating, Goosegrass [5, 13]: 65 | Plant response rating, Goosegrass [5, 14]: 0 | Plant response rating, Goosegrass [5, 15]: 15 | Plant response rating, Goosegrass [5, 16]: 50 | Plant response rating, Goosegrass [5, 17]: 50 | Plant response rating, Goosegrass [5, 18]: 0 | Plant response rating, Goosegrass [5, 19]: 5 | Plant response rating, Goosegrass [5, 20]: 5 | Plant response rating, Goosegrass [5, 21]: 25 | Plant response rating, Goosegrass [5, 22]: 55 | Plant response rating, Horseweed [6, 13]: 80 | Plant response rating, Horseweed [6, 14]: 40 | Plant response rating, Horseweed [6, 15]: 50 | Plant response rating, Horseweed [6, 16]: 75 | Plant response rating, Horseweed [6, 17]: 80 | Plant response rating, Horseweed [6, 18]: 70 | Plant response rating, Horseweed [6, 19]: 90 | Plant response rating, Horseweed [6, 20]: 100 | Plant response rating, Horseweed [6, 21]: 100 | Plant response rating, Horseweed [6, 22]: 100 | Plant response rating, Dallisgrass [7, 13]: 50 | Plant response rating, Dallisgrass [7, 14]: 0 | Plant response rating, Dallisgrass [7, 15]: 0 | Plant response rating, Dallisgrass [7, 16]: 15 | Plant response rating, Dallisgrass [7, 17]: 35 | Plant response rating, Dallisgrass [7, 18]: 0 | Plant response rating, Dallisgrass [7, 19]: 5 | Plant response rating, Dallisgrass [7, 20]: 15 | Plant response rating, Dallisgrass [7, 21]: 30 | Plant response rating, Dallisgrass [7, 22]: 85 | Plant response rating, Groundsel [8, 13]: 100 | Plant response rating, Groundsel [8, 14]: 40 | Plant response rating, Groundsel [8, 15]: 75 | Plant response rating, Groundsel [8, 16]: 80 | Plant response rating, Groundsel [8, 17]: 95 | Plant response rating, Groundsel [8, 18]: 50 | Plant response rating, Groundsel [8, 19]: 60 | Plant response rating, Groundsel [8, 21]: 80 | Plant response rating, Groundsel [8, 22]: 100 | Plant response rating, Spanishneedles ([9]; 250 g ai/ha): 98 | Plant response rating, Spanishneedles ([9]; 16 g ai/ha): 75 | Plant response rating, Spanishneedles ([9]; 31 g ai/ha): 95 | Plant response rating, Spanishneedles ([9]; 62 g ai/ha): 98 | Plant response rating, Spanishneedles ([9]; 125 g ai/ha): 98 | Plant response rating, Morningglory [10, 13]: 100 | Plant response rating, Morningglory [10, 14]: 50 | Plant response rating, Morningglory [10, 15]: 60 | Plant response rating, Morningglory [10, 16]: 90 | Plant response rating, Morningglory [10, 17]: 100 | Plant response rating, Morningglory [10, 18]: 70 | Plant response rating, Morningglory [10, 19]: 90 | Plant response rating, Morningglory [10, 20]: 100 | Plant response rating, Morningglory [10, 21]: 100 | Plant response rating, Morningglory [10, 22]: 100 | Plant response rating, Spiderwort [11, 13]: 100 | Plant response rating, Spiderwort [11, 14]: 10 | Plant response rating, Spiderwort [11, 15]: 50 | Plant response rating, Spiderwort [11, 16]: 75 | Plant response rating, Spiderwort [11, 17]: 90 | Plant response rating, Spiderwort [11, 18]: 60 | Plant response rating, Spiderwort [11, 19]: 85 | Plant response rating, Spiderwort [11, 20]: 95 | Plant response rating, Spiderwort [11, 21]: 95 | Plant response rating, Spiderwort [11, 22]: 100 | Plant response rating, Itchgrass [12, 13]: 80 | Plant response rating, Itchgrass [12, 14]: 0 | Plant response rating, Itchgrass [12, 15]: 35 | Plant response rating, Itchgrass [12, 16]: 65 | Plant response rating, Itchgrass [12, 17]: 70 | Plant response rating, Itchgrass [12, 18]: 0 | Plant response rating, Itchgrass [12, 19]: 10 | Plant response rating, Itchgrass [12, 20]: 45 | Plant response rating, Itchgrass [12, 21]: 85 | Plant response rating, Itchgrass [12, 22]: 90
